Data taken from PMC12624573, “The antigen presentation landscape of cytokine-stressed human pancreatic islets” (Cell reports, 2025).

system: CD8+ T cells from PBMC; experiment: IFN-γ ELISpot, PBMC-derived in vitro expanded CD8+ T cell lines; assay type: cell-based, human; set-up: key to T cell recognition by PBMC from a T1D donor: E: T cell recognition by PBMC from a T1D donor was tested and verified; see Figure 5; conditions: not given

Row | Sequence | IFN-γ ELISpot response of expanded CD8+ T cells
1 | TLDGSLHAV [peptide 79, 11] | Responses

same assay, conditions: A2 Set Peptides; PBMC T cell lines; responding donors/donors tested

Row | Sequence | T1D Donor T cell response | non-T1D Donor T cell response
2 | AILETAPKEV [compound 129, 17] | 0/4 | 0/2
3 | QLMAEKLQL [compound 115, 15] | 0/4 | 0/2
4 | KVIEINPYL [compound 123, 16] | 0/5 | 0/2
5 | KLTENLVAL [compound 92, 12] | 0/5 | 0/2
6 | KLIQKNLAT [compound 130, 17] | 0/4 | 0/2
7 | RLQDELVTL [compound 110, 15] | 0/4 | 0/2
8 | RLSDVQIYV [compound 102, 14] | 1/4 | 0/2
9 | ALAPAPPQV [compound 127, 16] | 0/4 | 0/2
10 | ALKPLAAAL [compound 138, 18] | 0/4 | 0/2
11 | TLDGSLHAV [peptide 79, 11] | 1/5 | 0/2
12 | RLYDPTEGMVSV [compound 85, 12] | 0/4 | 0/2
13 | QQQQKIIAL [compound 91, 12] | 0/5 | 0/2
14 | YLLEKNRVV [compound 117, 15] | 0/4 | 0/2
15 | ALAEEVEQV [compound 87, 12] | 0/4 | 0/2

same assay, conditions: HPAP-A2 Pool Peptides; PBMC T cell lines; responding donors/donors tested

Row | Sequence | T1D Donor T cell response | non-T1D Donor T cell response
16 | DVIEKIRYV [compound 159] | 0/4 | 0/4
17 | ALDGPPIKV [compound 164] | 0/4 | 0/4
18 | NLKEAIETI [compound 163] | 0/4 | 0/4
19 | KVIEINPYL [compound 166] | 0/4 | 0/4
20 | RVVGTLHLL [compound 168] | 0/4 | 0/4

same assay, conditions: MHC-I peptides; superscript E on the peptide; F = verified with C1R-A2 cells

Row | Sequence | T cell recognition by PBMC from a T1D donor
21 | AMFDQSQIQEF | AMFDQSQIQEF ^E, F
22 | ALANHLIKV | ALANHLIKV ^ E
23 | RLSDVQIYV | RLSDVQIYV ^ E
24 | ALMEAIHSA | ALMEAIHSA ^ E

same assay, conditions: SEC (Secretory) A2 Peptides Set; PBMC T cell lines; responding donors/donors tested

Row | Sequence | T1D Donor T cell response
25 | KEFIAWLV [compound 174, secretory hormone eluted peptide, pool SEC A2] | 0/4

system: CD4+ T cells from PBMC; experiment: IFN-γ ELISpot, PBMC-derived in vitro expanded CD4+ T cell lines; assay type: cell-based, human; set-up: key to T cell recognition by PBMC from a T1D donor (mark E) / T cell recognition by PBMC from a T1D donor: E: T cell recognition by PBMC from a T1D donor was tested and verified; see Figure 5; conditions: DR3/DQ Set Peptides; PBMC T cell lines; responding donors/donors tested

Row | Sequence | T1D Donor T cell response | non-T1D Donor T cell response
26 | KRPAIWIDTGIHSRE [peptide 10] | 4/4 | 2/2
27 | LEKDIISDTSGDFRK [compound 8] | 0/4 | 0/2
28 | GVSDQSFQVEEAKRIKQ [compound 25] | 0/4 | 0/2
29 | YYYIQQDTKGDYQK [peptide 7] | 0/4 | 0/2
30 | KARFAKQPAYTLVDR [compound 24] | 3/4 | 2/2
31 | NPAEFVVNTSNAGAG [compound 22] | 0/4 | 0/2
32 | QDPELPDKNMFTINRNTGVIS [compound 29] | 2/4 | 0/2

same assay, conditions: MHC-II peptides; tested and verified, see Figure 5

Row | Sequence | T cell recognition by PBMC from a T1D donor (mark E)
33 | ETDKEQLTAEAKELRQK | ETDKEQ LTAEAKELR QK ^ E
34 | GSDDWAYDQGIRYS | GSDD WAYDQGIRY S ^ E
35 | FQYIIDNKGIDSDAS | FQ YIIDNKGID SDAS ^ E

same assay, conditions: PTM and unmodified native Pool Peptides (pool PTM 1), long peptides; PBMC T cell lines; responding donors/donors tested

Row | Sequence | T1D Donor T cell response | non-T1D Donor T cell response
36 | GSHLVEALYLVCGEXGF [146-2] | 0/4 | 0/4

same assay, conditions: T1D donors, PBMC-derived lines (Figure 5J)

Row | Sequence | Number of donors whose CD4 T cells recognized the peptide (IFN-γ ELISpot)
37 | KRPAIWIDTGIHSRE [peptide 10] | all four donors
38 | KARFAKQPAYTLVDR [compound 24] | three of the donors

same assay, conditions: control donor LSLP-074; frequencies ∼10-fold lower than for T1D-004 (Figures 5E, 5F, S5B)

Row | Sequence | IFN-γ ELISpot response of expanded CD4+ T cells
39 | KRPAIWIDTGIHSRE [peptide 10] | responded
40 | KARFAKQPAYTLVDR [compound 24] | responded
